Assay results taken from paper PMC6211316, “Synthesis and biological evaluation of 3-arylcoumarin derivatives as potential anti-diabetic agents” (Journal of Enzyme Inhibition and Medicinal Chemistry, 2018).

Test system: not listed separately
Assay: DPPH free radical scavenging
Details: mean ± SD (n = 3)
Procedure, shortened: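 Sample solutions at various concentrations mixed 1:1 with DPPH (0.04 mg/mL) and reacted 30 min at room temperature; absorbance read at 517 nm against ethanol blank, corrected for sample absorbance. Scavenging % calculated versus DPPH alone, triplicate measurements, IC50 derived.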

Compound	IC50 [µM]
O=c1oc2ccc(O)cc2cc1-c1ccc(O)cc1 [Compound 17, 6-Hydroxy-3-(4-hydroxyphenyl)-coumarin]	163 ± 7.13
COc1ccc(-c2cc3c(O)cc(O)cc3oc2=O)cc1 [Compound 35, 5,7-Dihydroxy-3-(4-methoxyphenyl)-coumarin]	155 ± 10.5

Test system: not listed separately
Assay: hydroxyl radical scavenging
Details: mean ± SD (n = 3), read-out: OH IC50 Value
Procedure, shortened: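 Fenton system of H2O2 (0.03%), FeSO4 (2 mmol/L) and salicylic acid (10 mmol/L) with compound solutions (0.4–2.0 mg/mL), incubated 30 min at 37 °C. Absorbance read at 510 nm. % OH scavenging = [A0−(A1−A2)]/A0×100, with A2 a sample blank using ethanol in place of salicylic acid.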

Compound	IC50 [µM]
O=c1oc2ccc(O)cc2cc1-c1ccc(O)cc1 [Compound 17, 6-Hydroxy-3-(4-hydroxyphenyl)-coumarin]	> 1000
COc1ccc(-c2cc3c(O)cc(O)cc3oc2=O)cc1 [Compound 35, 5,7-Dihydroxy-3-(4-methoxyphenyl)-coumarin]	270 ± 41.6

Test system: STZ-diabetic mice
Assay: Acute hypoglycemic assay in STZ-diabetic mice
Assay type: in vivo
Details: STZ-diabetic animals, 30 mg/kg of bw, started from 3 h and persisted throughout the experiment
Experimental: Type II diabetes mellitus was induced in mice by a single intraperitoneal injection of freshly prepared STZ (Sigma Aldrich) dissolved in 0.1M citrate buffer, pH 4.5, in a volume of 110 mg/kg of bw. After 7 days of STZ administration, blood glucose levels of each mouse were determined. Mice with blood glucose levels higher than 11 mM were considered diabetic and were included in the study.
STZ-induced diabetic mice and normal mice were placed in single cages with wire-net floors and deprived of food for 12 h before experimentation but allowed free access to tap water throughout. The compounds (at the doses of 10, 30, and 100 mg/kg of bw) were suspended in 0.05% Tween-80 in saline solution. Glibenclamide (10 mg/kg of bw) was suspended in the same vehicle. The target compounds were freshly prepared immediately before experimentation and administered by the intragastrical route at the doses of 10 ml/kg of bw. Control mice received only the vehicle (0.05% Tween-80 in saline solution) by the same route. Blood glucose levels were measured at 0, 1.5, 3, 5, 7, and 9 h after drugs administration.

Compound	hypoglycemic effect [%]
O=c1oc2ccc(O)cc2cc1-c1ccc(O)cc1 [Compound 17, 6-Hydroxy-3-(4-hydroxyphenyl)-coumarin]	> 50
COc1ccc(-c2cc3c(O)cc(O)cc3oc2=O)cc1 [Compound 35, 5,7-Dihydroxy-3-(4-methoxyphenyl)-coumarin]	> 50

Same assay, conditions: STZ-diabetic mice, 10 mg/kg, at 7 h

Compound	highest anti-hyperglycemic effect [%]
COc1ccc(-c2cc3c(O)cc(O)cc3oc2=O)cc1 [Compound 35, 5,7-Dihydroxy-3-(4-methoxyphenyl)-coumarin]	~73.66

Same assay, conditions: STZ-diabetic mice, 30 mg/kg, at 9 h

Compound	highest anti-hyperglycemic effect [%]
O=c1oc2ccc(O)cc2cc1-c1ccc(O)cc1 [Compound 17, 6-Hydroxy-3-(4-hydroxyphenyl)-coumarin]	~70.39
COc1ccc(-c2cc3c(O)cc(O)cc3oc2=O)cc1 [Compound 35, 5,7-Dihydroxy-3-(4-methoxyphenyl)-coumarin]	~74.54

Same assay, conditions: STZ-diabetic mice, 100 mg/kg, at 7 h

Compound	highest anti-hyperglycemic effect [%]
O=c1oc2ccc(O)cc2cc1-c1ccc(O)cc1 [Compound 17, 6-Hydroxy-3-(4-hydroxyphenyl)-coumarin]	~70.51

Same assay, conditions: STZ-diabetics mice, 10 mg/kg of bw per os, 0h

Compound	Blood glucose concentration [mM]
O=c1oc2ccc(O)cc2cc1-c1ccc(O)cc1 [Compound 17, 6-Hydroxy-3-(4-hydroxyphenyl)-coumarin]	26.9 ± 3.8
COc1ccc(-c2cc3c(O)cc(O)cc3oc2=O)cc1 [Compound 35, 5,7-Dihydroxy-3-(4-methoxyphenyl)-coumarin]	20.5 ± 7.1

Same assay, conditions: STZ-diabetics mice, 10 mg/kg of bw per os, 1.5h

Compound	% Variation of glycemia	Blood glucose concentration [mM]
O=c1oc2ccc(O)cc2cc1-c1ccc(O)cc1 [Compound 17, 6-Hydroxy-3-(4-hydroxyphenyl)-coumarin]	(−8.92) %	24.5 ± 3.0
COc1ccc(-c2cc3c(O)cc(O)cc3oc2=O)cc1 [Compound 35, 5,7-Dihydroxy-3-(4-methoxyphenyl)-coumarin]	(−36.10) %	13.1 ± 6.4

Same assay, conditions: STZ-diabetics mice, 10 mg/kg of bw per os, 3h

Compound	% Variation of glycemia	Blood glucose concentration [mM]
O=c1oc2ccc(O)cc2cc1-c1ccc(O)cc1 [Compound 17, 6-Hydroxy-3-(4-hydroxyphenyl)-coumarin]	(−15.24) %	22.8 ± 2.3
COc1ccc(-c2cc3c(O)cc(O)cc3oc2=O)cc1 [Compound 35, 5,7-Dihydroxy-3-(4-methoxyphenyl)-coumarin]	(−47.81) %	10.7 ± 5.7

Same assay, conditions: STZ-diabetics mice, 10 mg/kg of bw per os, 5h

Compound	% Variation of glycemia	Blood glucose concentration [mM]
O=c1oc2ccc(O)cc2cc1-c1ccc(O)cc1 [Compound 17, 6-Hydroxy-3-(4-hydroxyphenyl)-coumarin]	(−38.29) %	16.6 ± 5.8
COc1ccc(-c2cc3c(O)cc(O)cc3oc2=O)cc1 [Compound 35, 5,7-Dihydroxy-3-(4-methoxyphenyl)-coumarin]	(−72.68) %	5.6 ± 3.1

Same assay, conditions: STZ-diabetics mice, 10 mg/kg of bw per os, 7h

Compound	% Variation of glycemia	Blood glucose concentration [mM]
O=c1oc2ccc(O)cc2cc1-c1ccc(O)cc1 [Compound 17, 6-Hydroxy-3-(4-hydroxyphenyl)-coumarin]	(−44.98) %	14.8 ± 8.0
COc1ccc(-c2cc3c(O)cc(O)cc3oc2=O)cc1 [Compound 35, 5,7-Dihydroxy-3-(4-methoxyphenyl)-coumarin]	(−73.66) %	5.4 ± 3.4

Same assay, conditions: STZ-diabetics mice, 10 mg/kg of bw per os, 9h

Compound	% Variation of glycemia	Blood glucose concentration [mM]
O=c1oc2ccc(O)cc2cc1-c1ccc(O)cc1 [Compound 17, 6-Hydroxy-3-(4-hydroxyphenyl)-coumarin]	(−45.35) %	14.7 ± 9.5
COc1ccc(-c2cc3c(O)cc(O)cc3oc2=O)cc1 [Compound 35, 5,7-Dihydroxy-3-(4-methoxyphenyl)-coumarin]	(−72.20) %	5.7 ± 3.1

Same assay, conditions: STZ-diabetics mice, 30 mg/kg of bw per os, 0h

Compound	Blood glucose concentration [mM]
O=c1oc2ccc(O)cc2cc1-c1ccc(O)cc1 [Compound 17, 6-Hydroxy-3-(4-hydroxyphenyl)-coumarin]	23.3 ± 3.2
COc1ccc(-c2cc3c(O)cc(O)cc3oc2=O)cc1 [Compound 35, 5,7-Dihydroxy-3-(4-methoxyphenyl)-coumarin]	21.6 ± 4.4

Same assay, conditions: STZ-diabetics mice, 30 mg/kg of bw per os, 1.5h

Compound	% Variation of glycemia	Blood glucose concentration [mM]
O=c1oc2ccc(O)cc2cc1-c1ccc(O)cc1 [Compound 17, 6-Hydroxy-3-(4-hydroxyphenyl)-coumarin]	(−23.18) %	17.9 ± 5.7
COc1ccc(-c2cc3c(O)cc(O)cc3oc2=O)cc1 [Compound 35, 5,7-Dihydroxy-3-(4-methoxyphenyl)-coumarin]	(−44.44) %	12.0 ± 3.7

Same assay, conditions: STZ-diabetics mice, 30 mg/kg of bw per os, 3h

Compound	% Variation of glycemia	Blood glucose concentration [mM]
O=c1oc2ccc(O)cc2cc1-c1ccc(O)cc1 [Compound 17, 6-Hydroxy-3-(4-hydroxyphenyl)-coumarin]	(−50.22) %	11.6 ± 4.8
COc1ccc(-c2cc3c(O)cc(O)cc3oc2=O)cc1 [Compound 35, 5,7-Dihydroxy-3-(4-methoxyphenyl)-coumarin]	(−51.39) %	10.5 ± 5.1

Same assay, conditions: STZ-diabetics mice, 30 mg/kg of bw per os, 5h

Compound	% Variation of glycemia	Blood glucose concentration [mM]
O=c1oc2ccc(O)cc2cc1-c1ccc(O)cc1 [Compound 17, 6-Hydroxy-3-(4-hydroxyphenyl)-coumarin]	(−64.38) %	8.3 ± 3.8
COc1ccc(-c2cc3c(O)cc(O)cc3oc2=O)cc1 [Compound 35, 5,7-Dihydroxy-3-(4-methoxyphenyl)-coumarin]	(−70.83) %	6.3 ± 4.3

Same assay, conditions: STZ-diabetics mice, 30 mg/kg of bw per os, 7h

Compound	% Variation of glycemia	Blood glucose concentration [mM]
O=c1oc2ccc(O)cc2cc1-c1ccc(O)cc1 [Compound 17, 6-Hydroxy-3-(4-hydroxyphenyl)-coumarin]	(−68.24) %	7.4 ± 6.7
COc1ccc(-c2cc3c(O)cc(O)cc3oc2=O)cc1 [Compound 35, 5,7-Dihydroxy-3-(4-methoxyphenyl)-coumarin]	(−73.61) %	5.7 ± 6.7

Same assay, conditions: STZ-diabetics mice, 30 mg/kg of bw per os, 9h

Compound	% Variation of glycemia	Blood glucose concentration [mM]
O=c1oc2ccc(O)cc2cc1-c1ccc(O)cc1 [Compound 17, 6-Hydroxy-3-(4-hydroxyphenyl)-coumarin]	(−70.39) %	6.9 ± 7.9
COc1ccc(-c2cc3c(O)cc(O)cc3oc2=O)cc1 [Compound 35, 5,7-Dihydroxy-3-(4-methoxyphenyl)-coumarin]	(−74.54) %	5.5 ± 5.2

Same assay, conditions: STZ-diabetics mice, 100 mg/kg of bw per os, 0h

Compound	Blood glucose concentration [mM]
O=c1oc2ccc(O)cc2cc1-c1ccc(O)cc1 [Compound 17, 6-Hydroxy-3-(4-hydroxyphenyl)-coumarin]	23.4 ± 5.7
COc1ccc(-c2cc3c(O)cc(O)cc3oc2=O)cc1 [Compound 35, 5,7-Dihydroxy-3-(4-methoxyphenyl)-coumarin]	20.3 ± 4.4

Same assay, conditions: STZ-diabetics mice, 100 mg/kg of bw per os, 1.5h

Compound	% Variation of glycemia	Blood glucose concentration [mM]
O=c1oc2ccc(O)cc2cc1-c1ccc(O)cc1 [Compound 17, 6-Hydroxy-3-(4-hydroxyphenyl)-coumarin]	(−19.66) %	18.8 ± 6.0
COc1ccc(-c2cc3c(O)cc(O)cc3oc2=O)cc1 [Compound 35, 5,7-Dihydroxy-3-(4-methoxyphenyl)-coumarin]	(−25.62) %	15.1 ± 5.0

Same assay, conditions: STZ-diabetics mice, 100 mg/kg of bw per os, 3h

Compound	% Variation of glycemia	Blood glucose concentration [mM]
O=c1oc2ccc(O)cc2cc1-c1ccc(O)cc1 [Compound 17, 6-Hydroxy-3-(4-hydroxyphenyl)-coumarin]	(−46.58) %	12.5 ± 4.7
COc1ccc(-c2cc3c(O)cc(O)cc3oc2=O)cc1 [Compound 35, 5,7-Dihydroxy-3-(4-methoxyphenyl)-coumarin]	(−48.28) %	10.5 ± 4.9

Same assay, conditions: STZ-diabetics mice, 100 mg/kg of bw per os, 5h

Compound	% Variation of glycemia	Blood glucose concentration [mM]
O=c1oc2ccc(O)cc2cc1-c1ccc(O)cc1 [Compound 17, 6-Hydroxy-3-(4-hydroxyphenyl)-coumarin]	(−67.52) %	7.6 ± 3.8
COc1ccc(-c2cc3c(O)cc(O)cc3oc2=O)cc1 [Compound 35, 5,7-Dihydroxy-3-(4-methoxyphenyl)-coumarin]	(−64.53) %	7.2 ± 2.6

Same assay, conditions: STZ-diabetics mice, 100 mg/kg of bw per os, 7h

Compound	% Variation of glycemia	Blood glucose concentration [mM]
O=c1oc2ccc(O)cc2cc1-c1ccc(O)cc1 [Compound 17, 6-Hydroxy-3-(4-hydroxyphenyl)-coumarin]	(−70.51) %	6.9 ± 2.6
COc1ccc(-c2cc3c(O)cc(O)cc3oc2=O)cc1 [Compound 35, 5,7-Dihydroxy-3-(4-methoxyphenyl)-coumarin]	(−64.53) %	7.2 ± 3.9

Same assay, conditions: STZ-diabetics mice, 100 mg/kg of bw per os, 9h

Compound	% Variation of glycemia	Blood glucose concentration [mM]
O=c1oc2ccc(O)cc2cc1-c1ccc(O)cc1 [Compound 17, 6-Hydroxy-3-(4-hydroxyphenyl)-coumarin]	(−65.81) %	8.0 ± 2.3
COc1ccc(-c2cc3c(O)cc(O)cc3oc2=O)cc1 [Compound 35, 5,7-Dihydroxy-3-(4-methoxyphenyl)-coumarin]	(−68.47) %	6.4 ± 2.0

Test system: STZ-induced diabetic mice
Assay: Daily treatment for 16 days in STZ-induced diabetic mice
Assay type: in vivo
Details: 30 mg/kg of bw daily per os, 16 days
Experimental: Thereafter, the target compounds 11, 17, 35, and glibenclamide were administered once (9 a.m.) on a daily basis, for a period of 16 days, to STZ-induced diabetic mice which were divided into five groups (A-E). A six group of normal mice (Group F) was used as a control. Groups E (diabetic control) and F received vehicle (0.05% Tween-80 in saline solution) per os for 16 days. Group A received glibenclamide (10 mg/kg of bw daily). Groups B–D received different treatments: B, compound 11 (30 mg/kg of bw daily); C, compound 17 (30 mg/kg of bw daily); D, compound 35 (30 mg/kg of bw daily). All tested materials were suspended in the same vehicle and administered per os daily for 16 days. The animals were housed under standard laboratory conditions and maintained with free access to water and food during all the experiment. Blood glucose concentration on animals of diabetic (Groups A–E) and control group (Group F) was estimated at days 1, 4, 7, 10, 13, and 16. The bw of the animals were measured concomitantly to the blood glucose analyses. All experiments were carried out using six animals per group.

Compound	bw loss in hyperglycemic mice
O=c1oc2ccc(O)cc2cc1-c1ccc(O)cc1 [Compound 17, 6-Hydroxy-3-(4-hydroxyphenyl)-coumarin]	prevented bw loss
COc1ccc(-c2cc3c(O)cc(O)cc3oc2=O)cc1 [Compound 35, 5,7-Dihydroxy-3-(4-methoxyphenyl)-coumarin]	prevented bw loss

Same assay, conditions: 30 mg/kg of bw daily, 16 days

Compound	blood glucose levels at the end of the experiment
COc1ccc(-c2cc3c(O)cc(O)cc3oc2=O)cc1 [Compound 35, 5,7-Dihydroxy-3-(4-methoxyphenyl)-coumarin]	restored blood glucose levels to near normal values

Same assay, conditions: 30 mg/kg of bw oral, once a day, for 16 days

Compound	long-term anti-hyperglycemic effect (blood glucose levels)
O=c1oc2ccc(O)cc2cc1-c1ccc(O)cc1 [Compound 17, 6-Hydroxy-3-(4-hydroxyphenyl)-coumarin]	induced obviously anti-hyperglycemic effect
COc1ccc(-c2cc3c(O)cc(O)cc3oc2=O)cc1 [Compound 35, 5,7-Dihydroxy-3-(4-methoxyphenyl)-coumarin]	induced obviously anti-hyperglycemic effect
